Data set [1] concerns C57BL/6JOlaHsd mice. The experiment in a line: DOI-induced ear scratch response (ESR) / urge-like behavior. It is filed as in vivo. The protocol: (§1) • 1. CB2 receptor selective ligands or CB2/SERM ligands were injected intraperitoneally or orally at doses of 0.001 to 100 mg/kg one to two hours before the injection of DOI. In order to test the effect of DOI on head twitch responses, ear scratch and grooming responses, DOI was intraperitoneally injected at a dose of 1 mg/kg.
(§2) ESR behavior is a measure for urge-like behavior and often preceded HTRs. The ESR is a rapid scratching movement of the head, neck, ears, or other body surfaces by either hindlimbs. The number of ESRs was manually counted. Every ESR was also counted as a grooming. In some experiments, each ESR was considered as a separate episode if the animal moved. In some experiments, each ESR was considered as a separate episode for every ESR.
In order to further study the effect of the MH compositions on repetitive behavior, C57BL/6JOlaHsd mice were intraperitoneally injected at age 3 weeks or 6 weeks with a single dose of MH at 0.2-50 mg/kg or equivalent vehicle. One hour later mice were intraperitoneally injected a single dose of 1 mg/kg DOI or saline. HTR responses and ESR responses in mice were recorded.

The test system of data set [2] is C57BL/6JOlaHsd mice. It is filed as in vivo. As to conditions: for DOI-induced repetitive head twitches: dose not given.
The test system of data set [3] is CB2 receptor knockout mice. The experiment in a line: DOI-induced head twitch response (HTR) in CB2 receptor knockout mice. The class given is in vivo. Here is the method:
as §1
(§3) After DOI or saline injection, mice were placed in a transparent glass cage 30×40×31 cm divided into squares of 7.5×7.5 cm. Head twitch responses (HTRs) were manually counted by an observer. The HTR in mice is a distinctive behavior that cannot be misplaced with other head movements. After 5 min habitation to the cage the HTR were counted every 3 min for 15 min (a total of 20 min in the cage).
With a view to further study the effect of the MH compositions on repetitive behavior, CB2 receptor knockout mice (The Jackson Laboratory) were intraperitoneally injected at age 3 weeks or 6 weeks with a single dose of MH at 0.2-50 mg/kg or equivalent vehicle. One hour later mice were intraperitoneally injected a single dose of 1 mg/kg DOI or saline. HTR responses, grooming and ESR responses in mice were recorded.
With a view to further study the effect of the HU-308 compositions on repetitive behavior, CB2 receptor knockout mice (The Jackson Laboratory) were intraperitoneally injected at age 3 weeks or 6-21 weeks with a single dose of HU-308 at 0.2-50 mg/kg or equivalent vehicle. One hour later mice were intraperitoneally injected a single dose of 1 mg/kg DOI or saline. HTR responses and ESR responses in mice were recorded.

In data set [4] the test system is C57BL/6JOlaHsd mice. The experiment in a line: Head twitch response after drug alone (saline instead of DOI). The class given is in vivo. Here is the method: as §3
(§4) With a view to further study the effect of the MH compositions on repetitive behavior, C57BL/6JOlaHsd mice were intraperitoneally injected at age 3 weeks or 6 weeks with a single dose of MH at 0.2-50 mg/kg or equivalent vehicle. Optionally, one hour later mice received a single injection of saline (i.e. in the absence of DOI to test the effect of MH alone). HTR responses, ESR and grooming responses in mice were recorded.
With a view to further study the effect of the HU-308 compositions on repetitive behavior, C57BL/6JOlaHsd mice were intraperitoneally injected at age 3 weeks with a single dose of HU-308 at 0.2-50 mg/kg or equivalent vehicle one hour later mice received a single injection of saline (i.e. in the absence of DOI to test the effect of HU-308 alone). HTR responses and ESR responses in mice were recorded.

The conditions of data set [5]: 5 mg/kg during postnatal days 5-13; U.S. Pat. No. 9,486,419; cited from earlier work.
The test system of data set [6] is C57BL/6JOlaHsd mice. The experiment in a line: Marble burying test (compulsive behavior). It is filed as in vivo. As to conditions: age 6 weeks, one hour after a single injection. Here is the method:
Mice were habituated to the test room for 1 h. A mouse was injected with DOI as above and then placed in the experimental cage (white plastic 36×24.5 ×14.5 cm) filled with 5 cm sawdust for 5 min, in the absence of marbles. The mouse was taken out and twenty black glass were arranged 4 by 5 with 7 cm apart and 1 cm apart from the wells of the cage. Each mouse was tested for its marble burying activity for 30 min. Activity was videotaped with EthoVision and buried marbles were counted manually at the end of the experiment (after 30 min). A marble considered as buried when it was sawdust-covered by two third of its volume. Marbles that were moved were also counted.
With a view to study the effect of the JTE-907 and M1 compositions on repetitive behavior, C57BL/6JOlaHsd mice were intraperitoneally injected at age 6 weeks with a single dose of JTE-907 at 0.2-50 mg/kg, M1 at 0.2-50 mg/kg or equivalent vehicle. The number of buried marbles in the burying marble test by each mouse was recorded.

The test system of the next data set is Sabra mice. The experiment in a line: Ultrasonic vocals, SR141716A-induced vocal tic-like behavior. It is filed as in vivo.
For the next data set, the target named is CB2 receptor (Homo sapiens, UniProt P34972). The conditions noted are these: Schuehly et al. 2011; read-out: Ki, CB2 receptor ligand; cited from earlier work.
Chain of CB2 receptor (P34972 whole entry): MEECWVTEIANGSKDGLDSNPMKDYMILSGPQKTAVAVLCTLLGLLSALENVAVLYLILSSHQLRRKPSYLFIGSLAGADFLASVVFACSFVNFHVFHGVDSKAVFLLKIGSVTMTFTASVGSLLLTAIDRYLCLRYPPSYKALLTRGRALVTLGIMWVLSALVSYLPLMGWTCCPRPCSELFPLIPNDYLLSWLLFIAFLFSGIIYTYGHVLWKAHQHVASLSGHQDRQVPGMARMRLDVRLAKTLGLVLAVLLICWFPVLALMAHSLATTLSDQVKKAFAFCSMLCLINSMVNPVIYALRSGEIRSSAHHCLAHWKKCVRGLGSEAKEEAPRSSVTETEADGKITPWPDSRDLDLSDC
The test system of data set [7] is C57BL/6JOlaHsd mice. The experiment in a line: ESR/grooming (urge-like response) after drug alone. It is filed as in vivo. The conditions noted are these: doses 1-20 mg/kg i.p., age 6 weeks, no DOI.
Source text: as §2
Grooming behavior is a measure for anxiety. Grooming behavior in mice is characterized by licking its fur, groom with the forepaws, or scratch with any limb. Often the mouse will mix all of these grooming behaviors. The number of grooms was manually counted. In some experiments, each grooming behavior was considered as a separate episode if the animal moved its hindlimbs. In some experiments, each grooming behavior was considered as a separate episode for every grooming behavior.
as §4

The mark [8] stands for this setting: 0.2 mg/kg i.p., age 3 weeks, one hour before DOI.
[9] abbreviates: 5 mg/kg i.p., age 3 weeks, one hour before DOI 1 mg/kg.
The mark [10] stands for this setting: 10 mg/kg i.p. single dose, age 3 weeks, one hour before DOI 1 mg/kg i.p.

Counter-ions that a name gives are not always drawn. Like-named read-outs stand apart in the source and are kept apart here.

By Ki is commonly meant a dissociation constant, usually derived from enzyme kinetics or from competition with a known ligand.

For the compound `COc1cc(CC(C)N)c(OC)cc1I.Cl` (single isomer, unassigned; (-)) [DOI, (−)-1-(2,5-dimethoxy-4-iodophenyl)-2-aminopropane hydrochloride], the “ESR frequency, DOI vs control mice” value with C57BL/6JOlaHsd mice [1] (DOI 1 mg/kg i.p.) was “increased”. Further, the “HTR frequency, model mice (DOI) vs control mice” value in the data set on C57BL/6JOlaHsd mice [2] (DOI 1 mg/kg i.p., age 3 weeks) was “increased”. Further, in [3] (DOI 1 mg/kg i.p., age 6 weeks), the “HTR frequency in CB2 receptor knockout mice after DOI” value is “increased”.

As for `C=C1CC/C=C(\C)CC[C@@H]2[C@@H]1CC2(C)C` [BCP, beta-caryophyllene], in the data set on C57BL/6JOlaHsd mice [2], the “DOI-induced repetitive head twitches” value is on record as “able to reduce”.

As for `CCCCCCC(C)(C)c1cc(OC)c([C@@H]2C=C(CO)[C@@H]3C[C@H]2C3(C)C)c(OC)c1` [HU-308, [(1R,2R,5R)-2-[2,6-dimethoxy-4-(2-methyloctan-2-yl)phenyl]-7,7-dimethyl-4-bicyclo[3.1.1]hept-3-enyl] methanol], the “repetitive behavior (HTR), drug alone” value in the data set on C57BL/6JOlaHsd mice [4] (0.2 mg/kg i.p., age 3 weeks, saline instead of DOI) is given as “significantly increased”. Moreover, the “DOI-induced HTR frequency” value in the data set on C57BL/6JOlaHsd mice [2] (setting [8]) and in the data set on C57BL/6JOlaHsd mice [2] (setting [9]) was “reduced” in each case. Besides, the “DOI-induced repetitive head twitches” value in the data set on C57BL/6JOlaHsd mice [2] is given as “able to reduce”. Besides, the “DOI-induced HTR frequency in CB2 receptor knockout mice” value in data set [3] (5 mg/kg i.p., male, age 6-21 weeks, DOI 1 mg/kg) is recorded as “significantly reduces”. In addition, in data set [5], the “motor tics/head twitches at the age of 12 weeks, open field test” value is on record as “induce abnormal motor tics/head twitches”.

On to `CCCCCOc1c(OC)ccc2cc(C(=O)NCc3ccc4c(c3)OCO4)c(=O)[nH]c12` [JTE-907, N-(benzo[1,3]dioxol-5-ylmethyl)-7-methoxy-2-oxo-8-pentyloxy-1,2-dihydroquinoline-3-carboxamide], for which, in the data set on C57BL/6JOlaHsd mice [6] (5 mg/kg i.p.), the “number of buried marbles” value is on record as “reduced”. The “DOI-induced HTR frequency” value with C57BL/6JOlaHsd mice [2] (setting [8]) and in the data set with C57BL/6JOlaHsd mice [2] (setting [9]) was “reduced” throughout.

In the case of `C=CCc1ccc(O)c(-c2ccc(OC)c(CC=C)c2)c1` [MH, 2-(4-Methoxy-3-prop-2-enylphenyl)-4-prop-2-enylphenol], the “number of buried marbles” value in the data set with C57BL/6JOlaHsd mice [6] (10 mg/kg i.p.) is reported as “reduced”. The “vocal tic-like behavior (number of ultrasonic vocal events)” value with Sabra mice (SR141716A 5 mg/kg s.c. postnatal day 1-3, drug s.c. at age 13 days, one hour before recording) is “significantly reduces”. The Ki on CB2 receptor is 50 nM. The “HTR, drug alone” value with C57BL/6JOlaHsd mice [4] (doses 1-20 mg/kg i.p., age 6 weeks, no DOI) is reported as “did not induce HTR at any dose”. The “frequency of DOI-induced ESR behavior” value in the data set on C57BL/6JOlaHsd mice [1] (i.p., one hour before DOI 1 mg/kg) is “reduced”. Further, the “DOI-induced HTRs” value in the data set on C57BL/6JOlaHsd mice [2] (1 mg/kg i.p., age 3 weeks, one hour before DOI 1 mg/kg) is “reduced”; in the data set on C57BL/6JOlaHsd mice [2] (1 mg/kg i.p., age 6 weeks, one hour before DOI 1 mg/kg), “reduced”; in the data set with C57BL/6JOlaHsd mice [2] (5 mg/kg i.p., age 6 weeks, one hour before DOI 1 mg/kg), “reduced”. Further, the “DOI-induced HTR frequency” value in the data set with C57BL/6JOlaHsd mice [2] (1 mg/kg oral (gavage) in self-emulsifying oral formulation, age 3 weeks, two hours before DOI 1 mg/kg i.p.) is reported as “significantly reduced”; in the data set with C57BL/6JOlaHsd mice [2] (setting [9]), “reduced”; in the data set on C57BL/6JOlaHsd mice [2] (5 mg/kg oral (gavage) in self-emulsifying oral formulation, age 3 weeks, two hours before DOI 1 mg/kg i.p.), “significantly reduced”. Further, the “effect to reverse DOI-induced HTR, age 3 weeks vs 6 weeks” value in the data set on C57BL/6JOlaHsd mice [2] (i.p., after 20 min from DOI injection) is listed as “higher at age 3 weeks than 6 weeks”. For the same compound, the “effect on DOI-induced HTR frequency, 1 mg/kg vs 5 mg/kg” value in the data set on C57BL/6JOlaHsd mice [2] (oral formulation, age 3 weeks) was “greater than this of 5 mg/kg”. For the same compound, the “DOI-induced HTR frequency in CB2 receptor knockout mice” value in data set [3] (mouse, in vivo) is “did not reduce”. For the same compound, the “urge-like response (grooming/ESR), drug alone” value in the data set with C57BL/6JOlaHsd mice [7] is listed as “did not induce urge-like response at any dose”.

In the case of `Cc1c(C(=O)NN2CCCCC2)nn(-c2ccc(Cl)cc2Cl)c1-c1ccc(Cl)cc1` [SR141716A], in the data set with Sabra mice (administered to mice pups at the age of one to two days), the “vocalization vs control litter mates” value is reported as “higher level of vocalization and/or higher number of vocals”.

As to `CCN(CC)CCOc1ccc(C(=C(Cl)c2ccccc2)c2ccccc2)cc1` [clomiphene citrate], the “DOI-induced HTR frequency” value with C57BL/6JOlaHsd mice [2] (setting [10]) is “did not significantly reverse”.

Turning to `O=C(c1ccc(OCCN2CCCCC2)cc1)c1c(-c2ccc(O)cc2)sc2cc(O)ccc12` [raloxifene], the “DOI-induced HTR frequency” value with C57BL/6JOlaHsd mice [2] (setting [10]) is recorded as “reduced”.

These data come from patent publication US20190321355A1, “TREATMENT OF MENTAL, MOVEMENT AND BEHAVIORAL DISORDERS” (priority 2016, published 2019).
